Key:
Type in all cases: cell-based
Details in all cases: compounds at 50 nM and 500 nM
CK1α = biological target: T1, CK1α (Homo sapiens, UniProt P48729+Q96SW2); test: Western blot degradation of CK1α in hPBMCs (24 h)
T1 construct: The supernatant was aspirated as the extracted total cell protein; endogenous in cells; host or cells: human peripheral blood mononuclear cells (hPBMCs)
How it was run: (§1)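 In this assay, each compound was incubated with human PBMCs for 24 h at 50 nM and 500 nM. Target levels were measured by Western blot densitometry normalised to an internal control.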

WEE1 = biological target: T2, WEE1 (Homo sapiens, UniProt P30291+Q96SW2); test: Western blot degradation of WEE1 in hPBMCs (24 h)
T2 construct: The supernatant was aspirated as the extracted total cell protein; endogenous in cells; host or cells: human peripheral blood mononuclear cells (hPBMCs)
How it was run: as §1

GSPT1 = biological target: T3, GSPT1 (Homo sapiens, UniProt P15170+Q96SW2); test: Western blot degradation of GSPT1 in hPBMCs (24 h)
T3 construct: The supernatant was aspirated as the extracted total cell protein; endogenous in cells; host or cells: human peripheral blood mononuclear cells (hPBMCs)
How it was run: as §1

IKZF1 = biological target: T4, IKZF1 (Homo sapiens, UniProt Q13422+Q96SW2); test: Western blot degradation of IKZF1 in hPBMCs (24 h)
T4 construct: The supernatant was aspirated as the extracted total cell protein; endogenous in cells; host or cells: human peripheral blood mononuclear cells (hPBMCs)
How it was run: as §1

IKZF2 = biological target: T5, IKZF2 (Homo sapiens, UniProt Q96SW2+Q9UKS7); test: Western blot degradation of IKZF2 in hPBMCs (24 h)
T5 construct: The supernatant was aspirated as the extracted total cell protein; endogenous in cells; host or cells: human peripheral blood mononuclear cells (hPBMCs)
How it was run: as §1

IKZF3 = biological target: T6, IKZF3 (Homo sapiens, UniProt Q96SW2+Q9UKT9); test: Western blot degradation of IKZF3 in hPBMCs (24 h)
T6 construct: The supernatant was aspirated as the extracted total cell protein; endogenous in cells; host or cells: human peripheral blood mononuclear cells (hPBMCs)
How it was run: as §1

T6 sequence (Q9UKT9 whole entry): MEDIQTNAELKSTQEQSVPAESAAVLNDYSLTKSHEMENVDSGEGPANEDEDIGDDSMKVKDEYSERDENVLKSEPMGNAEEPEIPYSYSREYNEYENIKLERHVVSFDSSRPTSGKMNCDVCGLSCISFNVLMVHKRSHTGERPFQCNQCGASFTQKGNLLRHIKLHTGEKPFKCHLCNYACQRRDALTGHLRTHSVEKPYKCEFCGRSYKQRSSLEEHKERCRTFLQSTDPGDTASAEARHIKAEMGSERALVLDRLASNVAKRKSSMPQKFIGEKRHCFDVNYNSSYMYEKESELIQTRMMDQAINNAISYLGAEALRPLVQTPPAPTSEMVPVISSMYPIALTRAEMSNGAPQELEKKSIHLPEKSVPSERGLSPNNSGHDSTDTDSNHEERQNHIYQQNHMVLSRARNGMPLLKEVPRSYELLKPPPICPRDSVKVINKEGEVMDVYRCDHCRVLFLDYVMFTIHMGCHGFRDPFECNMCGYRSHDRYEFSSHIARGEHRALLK
T6 sequence (Q96SW2 whole entry): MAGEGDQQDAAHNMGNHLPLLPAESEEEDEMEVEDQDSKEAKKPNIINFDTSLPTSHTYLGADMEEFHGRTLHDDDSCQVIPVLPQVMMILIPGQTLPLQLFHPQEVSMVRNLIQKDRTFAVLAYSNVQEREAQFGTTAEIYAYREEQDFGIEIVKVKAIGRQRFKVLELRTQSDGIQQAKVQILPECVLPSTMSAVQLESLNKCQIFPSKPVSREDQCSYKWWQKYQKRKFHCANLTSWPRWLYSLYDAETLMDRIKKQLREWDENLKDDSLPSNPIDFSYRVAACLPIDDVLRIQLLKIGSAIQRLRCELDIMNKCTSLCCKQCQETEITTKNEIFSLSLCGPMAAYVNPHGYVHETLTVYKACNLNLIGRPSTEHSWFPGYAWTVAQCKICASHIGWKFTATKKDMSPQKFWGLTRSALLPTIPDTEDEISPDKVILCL
T6 sequence (Q16531 whole entry partner): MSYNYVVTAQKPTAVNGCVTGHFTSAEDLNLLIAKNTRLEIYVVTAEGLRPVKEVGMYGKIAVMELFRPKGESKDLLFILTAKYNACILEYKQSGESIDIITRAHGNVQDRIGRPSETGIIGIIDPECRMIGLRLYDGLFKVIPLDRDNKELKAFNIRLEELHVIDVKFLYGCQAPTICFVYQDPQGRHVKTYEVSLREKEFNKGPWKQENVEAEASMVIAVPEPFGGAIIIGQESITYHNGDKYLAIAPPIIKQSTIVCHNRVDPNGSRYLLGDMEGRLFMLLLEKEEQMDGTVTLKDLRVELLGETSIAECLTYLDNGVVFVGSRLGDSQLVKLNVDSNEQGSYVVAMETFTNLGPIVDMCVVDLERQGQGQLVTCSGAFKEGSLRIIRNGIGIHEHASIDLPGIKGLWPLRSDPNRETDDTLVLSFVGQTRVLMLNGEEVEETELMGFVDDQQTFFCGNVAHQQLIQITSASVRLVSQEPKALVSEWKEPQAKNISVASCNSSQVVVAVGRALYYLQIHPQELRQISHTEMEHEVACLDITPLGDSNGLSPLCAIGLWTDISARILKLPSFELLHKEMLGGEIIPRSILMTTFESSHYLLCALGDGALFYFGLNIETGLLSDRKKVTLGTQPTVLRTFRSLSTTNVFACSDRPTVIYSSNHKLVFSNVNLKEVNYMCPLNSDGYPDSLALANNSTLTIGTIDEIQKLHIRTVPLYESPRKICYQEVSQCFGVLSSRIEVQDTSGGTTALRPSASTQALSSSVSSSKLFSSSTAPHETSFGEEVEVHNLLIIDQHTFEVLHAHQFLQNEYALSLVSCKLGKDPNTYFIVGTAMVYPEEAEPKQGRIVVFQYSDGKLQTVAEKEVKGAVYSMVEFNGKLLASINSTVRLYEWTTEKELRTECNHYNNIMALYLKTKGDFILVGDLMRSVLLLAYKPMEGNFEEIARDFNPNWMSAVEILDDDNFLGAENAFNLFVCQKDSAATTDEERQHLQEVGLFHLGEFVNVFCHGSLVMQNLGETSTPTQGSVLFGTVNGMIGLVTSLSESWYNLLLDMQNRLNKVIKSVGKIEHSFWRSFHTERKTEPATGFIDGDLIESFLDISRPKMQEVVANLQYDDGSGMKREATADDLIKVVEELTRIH
T5 sequence (Q9UKS7 whole entry): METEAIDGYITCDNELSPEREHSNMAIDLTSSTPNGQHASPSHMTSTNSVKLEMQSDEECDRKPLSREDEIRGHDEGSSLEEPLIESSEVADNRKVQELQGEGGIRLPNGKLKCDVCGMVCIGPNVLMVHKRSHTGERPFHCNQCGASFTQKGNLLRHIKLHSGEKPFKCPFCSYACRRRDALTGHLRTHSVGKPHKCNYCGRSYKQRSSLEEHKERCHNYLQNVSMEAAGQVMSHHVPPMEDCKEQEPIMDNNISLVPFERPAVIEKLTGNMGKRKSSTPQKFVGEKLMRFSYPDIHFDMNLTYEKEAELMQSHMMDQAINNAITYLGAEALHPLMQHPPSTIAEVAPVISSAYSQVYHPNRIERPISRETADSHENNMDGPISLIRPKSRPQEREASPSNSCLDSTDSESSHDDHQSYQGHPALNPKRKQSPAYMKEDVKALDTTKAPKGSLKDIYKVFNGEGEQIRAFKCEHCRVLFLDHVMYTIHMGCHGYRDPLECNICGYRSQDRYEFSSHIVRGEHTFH
T5 sequence (Q96SW2 whole entry): as the sequence (Q96SW2 whole entry) above
T5 sequence (Q16531 whole entry partner): as the sequence (Q16531 whole entry partner) above
T2 sequence (P30291 whole entry): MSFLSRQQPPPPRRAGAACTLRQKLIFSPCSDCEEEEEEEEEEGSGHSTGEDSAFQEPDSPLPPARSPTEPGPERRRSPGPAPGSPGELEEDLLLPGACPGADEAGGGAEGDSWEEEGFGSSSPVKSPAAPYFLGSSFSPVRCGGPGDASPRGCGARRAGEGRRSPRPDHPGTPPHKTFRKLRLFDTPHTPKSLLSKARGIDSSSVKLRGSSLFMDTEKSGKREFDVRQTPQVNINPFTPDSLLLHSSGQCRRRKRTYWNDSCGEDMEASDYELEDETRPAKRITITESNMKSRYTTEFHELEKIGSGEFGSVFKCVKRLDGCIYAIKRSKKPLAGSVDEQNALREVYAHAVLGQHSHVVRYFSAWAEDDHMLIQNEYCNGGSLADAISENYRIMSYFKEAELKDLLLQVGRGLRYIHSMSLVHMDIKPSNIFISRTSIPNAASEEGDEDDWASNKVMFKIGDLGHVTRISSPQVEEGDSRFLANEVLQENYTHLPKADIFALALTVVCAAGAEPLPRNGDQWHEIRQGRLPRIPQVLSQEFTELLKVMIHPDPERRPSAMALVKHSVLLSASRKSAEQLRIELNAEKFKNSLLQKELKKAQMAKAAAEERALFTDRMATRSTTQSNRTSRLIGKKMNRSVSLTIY
T2 sequence (Q96SW2 whole entry): as the sequence (Q96SW2 whole entry) above
T2 sequence (Q16531 whole entry partner): as the sequence (Q16531 whole entry partner) above
T3 sequence (P15170 whole entry): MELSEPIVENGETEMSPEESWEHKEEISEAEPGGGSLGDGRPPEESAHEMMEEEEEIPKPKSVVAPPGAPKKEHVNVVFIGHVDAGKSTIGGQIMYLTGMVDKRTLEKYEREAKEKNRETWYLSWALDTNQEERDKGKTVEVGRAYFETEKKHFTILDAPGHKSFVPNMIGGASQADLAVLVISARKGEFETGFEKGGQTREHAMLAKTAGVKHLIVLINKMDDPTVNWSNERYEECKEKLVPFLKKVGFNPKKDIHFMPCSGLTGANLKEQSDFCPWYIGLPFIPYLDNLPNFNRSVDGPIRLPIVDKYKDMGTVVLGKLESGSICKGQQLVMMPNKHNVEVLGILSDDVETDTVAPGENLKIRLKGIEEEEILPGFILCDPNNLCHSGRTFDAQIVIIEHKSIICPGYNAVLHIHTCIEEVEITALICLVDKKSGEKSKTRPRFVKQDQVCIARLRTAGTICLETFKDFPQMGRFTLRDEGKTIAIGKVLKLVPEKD
T3 sequence (Q96SW2 whole entry): as the sequence (Q96SW2 whole entry) above
T3 sequence (Q16531 whole entry partner): as the sequence (Q16531 whole entry partner) above
T1 sequence (P48729 whole entry): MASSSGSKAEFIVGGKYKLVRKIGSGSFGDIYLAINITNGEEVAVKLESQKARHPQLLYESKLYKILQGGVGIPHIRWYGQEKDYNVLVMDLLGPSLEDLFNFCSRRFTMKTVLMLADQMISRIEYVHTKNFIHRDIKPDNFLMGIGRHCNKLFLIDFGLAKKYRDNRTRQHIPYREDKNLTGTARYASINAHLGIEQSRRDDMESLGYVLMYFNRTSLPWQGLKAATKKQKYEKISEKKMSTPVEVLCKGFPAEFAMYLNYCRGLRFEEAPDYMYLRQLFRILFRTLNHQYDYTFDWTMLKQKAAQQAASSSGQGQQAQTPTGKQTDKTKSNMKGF
T1 sequence (Q96SW2 whole entry): as the sequence (Q96SW2 whole entry) above
T1 sequence (Q16531 whole entry partner): as the sequence (Q16531 whole entry partner) above

Row | SMILES | CK1α substrate protein remaining % (CK1α) | WEE1 substrate protein remaining % (WEE1) | GSPT1 substrate protein remaining % (GSPT1) | IKZF1 substrate protein remaining % (IKZF1) | IKZF2 substrate protein remaining % (IKZF2) | IKZF3 substrate protein remaining % (IKZF3)
1 | O=C1CCN(N2Cc3cc(CN4C[C@H]5C[C@@H]4CN5c4cccc(Cl)c4Cl)ccc3C2=O)C(=O)N1 [GT-07427, 1-(5-(((1R,4R)-5-(2,3-dichlorophenyl)-2,5-diazabicyclo[2.2.1]heptan-2-yl)methyl)-1-oxoisoindolin-2-yl)dihydropyrimidine-2,4(1H,3H)-dione] | A (0% ≤ substrate protein remaining % ≤80%) | A (0% ≤ substrate protein remaining % ≤80%) | A (0% ≤ substrate protein remaining % ≤80%) | A (0% ≤ substrate protein remaining % ≤80%) | B (80%< substrate protein remaining % ≤100%) | B (80%< substrate protein remaining % ≤100%)
2 | O=C1CCN(N2Cc3cc(CN4CC5CCC4CN5c4cccc(Cl)c4Cl)ccc3C2=O)C(=O)N1 (stereo not drawn) [GT-07428, 1-(5-((5-(2,3-dichlorophenyl)-2,5-diazabicyclo[2.2.2]octan-2-yl)methyl)-1-oxoisoindolin-2-yl)dihydropyrimidine-2,4(1H,3H)-dione] | A (0% ≤ substrate protein remaining % ≤80%) | B (80%< substrate protein remaining % ≤100%) | A (0% ≤ substrate protein remaining % ≤80%) | A (0% ≤ substrate protein remaining % ≤80%) | B (80%< substrate protein remaining % ≤100%) | B (80%< substrate protein remaining % ≤100%)
3 | O=C1CCN(N2Cc3cc(CN4CC5CCC(C4)N5c4cccc(Cl)c4Cl)ccc3C2=O)C(=O)N1 [GT-07429, 1-(5-((8-(2,3-dichlorophenyl)-3,8-diazabicyclo[3.2.1]octan-3-yl)methyl)-1-oxoisoindolin-2-yl)dihydropyrimidine-2,4(1H,3H)-dione] | B (80%< substrate protein remaining % ≤100%) | B (80%< substrate protein remaining % ≤100%) | B (80%< substrate protein remaining % ≤100%) | A (0% ≤ substrate protein remaining % ≤80%) | B (80%< substrate protein remaining % ≤100%) | B (80%< substrate protein remaining % ≤100%)
4 | O=C1CCN(N2Cc3cc(CN4C5CCC4CN(c4cccc(Cl)c4Cl)C5)ccc3C2=O)C(=O)N1 [GT-07430, 1-(5-((3-(2,3-dichlorophenyl)-3,8-diazabicyclo[3.2.1]octan-8-yl)methyl)-1-oxoisoindolin-2-yl)dihydropyrimidine-2,4(1H,3H)-dione] | A (0% ≤ substrate protein remaining % ≤80%) | B (80%< substrate protein remaining % ≤100%) | A (0% ≤ substrate protein remaining % ≤80%) | A (0% ≤ substrate protein remaining % ≤80%) | B (80%< substrate protein remaining % ≤100%) | B (80%< substrate protein remaining % ≤100%)
5 | O=C1CCN(N2Cc3cc(CN4CCCN(c5cccc(Cl)c5Cl)CC4)ccc3C2=O)C(=O)N1 [GT-07431, 1-(5-((4-(2,3-dichlorophenyl)-1,4-diazepan-1-yl)methyl)-1-oxoisoindolin-2-yl)dihydropyrimidine-2,4(1H,3H)-dione] | A (0% ≤ substrate protein remaining % ≤80%) | B (80%< substrate protein remaining % ≤100%) | B (80%< substrate protein remaining % ≤100%) | A (0% ≤ substrate protein remaining % ≤80%) | B (80%< substrate protein remaining % ≤100%) | B (80%< substrate protein remaining % ≤100%)
